42 compounds from ChEMBL document CHEMBL1795338, “Identification of pentacyclic triterpenes derivatives as potent inhibitors against glycogen phosphorylase based on 3D-QSAR studies” (Eur J Med Chem, 2011) can be followed below.

As a reminder, the IC50 is the concentration that inhibits the measured activity by half.

The target of this experiment is T1, Glycogen phosphorylase, muscle form (Oryctolagus cuniculus, UniProt P00489).
T1 sequence (P00489 whole entry): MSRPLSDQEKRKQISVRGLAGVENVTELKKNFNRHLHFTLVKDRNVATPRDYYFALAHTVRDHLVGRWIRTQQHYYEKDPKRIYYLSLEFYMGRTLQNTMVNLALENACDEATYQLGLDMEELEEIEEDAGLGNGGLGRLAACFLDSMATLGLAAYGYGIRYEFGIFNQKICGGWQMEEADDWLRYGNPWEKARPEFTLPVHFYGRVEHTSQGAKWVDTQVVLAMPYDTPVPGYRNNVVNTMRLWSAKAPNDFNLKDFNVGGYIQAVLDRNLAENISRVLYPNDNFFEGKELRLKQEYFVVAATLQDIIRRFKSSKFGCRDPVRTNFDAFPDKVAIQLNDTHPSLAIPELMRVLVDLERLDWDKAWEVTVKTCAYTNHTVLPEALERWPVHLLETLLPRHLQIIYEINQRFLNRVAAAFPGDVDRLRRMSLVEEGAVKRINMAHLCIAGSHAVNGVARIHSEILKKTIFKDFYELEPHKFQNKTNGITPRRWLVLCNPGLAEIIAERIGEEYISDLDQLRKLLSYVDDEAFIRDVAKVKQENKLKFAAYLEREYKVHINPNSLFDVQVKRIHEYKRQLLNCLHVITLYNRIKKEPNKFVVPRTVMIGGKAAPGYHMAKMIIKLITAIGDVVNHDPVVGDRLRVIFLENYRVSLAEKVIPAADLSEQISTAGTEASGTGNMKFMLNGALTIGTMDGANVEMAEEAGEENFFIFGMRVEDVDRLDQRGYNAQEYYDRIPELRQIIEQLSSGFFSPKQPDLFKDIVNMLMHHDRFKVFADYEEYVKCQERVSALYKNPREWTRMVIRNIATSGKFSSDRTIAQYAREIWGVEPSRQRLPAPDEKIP
As to the kind of experiment: Inhibition of rabbit muscle glycogen phosphorylase A assessed as release of phosphate from glucose-1-phosphate after 25 mins by microplate reader based method.
Turning to `CC1(C)CC[C@]2(C(=O)OC3CC3)CC[C@]3(C)C(=CC[C@@H]4[C@@]5(C)C[C@H](O)CC(C)(C)[C@@H]5CC[C@]43C)[C@@H]2C1`, the IC50 was found to be 23.1 µM. With `C[C@H]1[C@H](C)CC[C@]2(C(=O)OCc3ccccc3)CC[C@]3(C)C(=CC[C@@H]4[C@@]5(C)C[C@H](O)CC(C)(C)[C@@H]5CC[C@]43C)[C@H]12`, the half-maximal inhibitory concentration (IC50) was determined as 22.3 µM. The same measure for `CC1(C)CC[C@]2(C(=O)OCCCCCCN)CC[C@]3(C)C(=CC[C@@H]4[C@@]5(C)CC[C@H](O)C(C)(C)[C@@H]5CC[C@]43C)[C@@H]2C1`: 14.1 µM. For `CCCCNCCCCCCOC(=O)[C@]12CCC(C)(C)C[C@H]1C1=CC[C@@H]3[C@@]4(C)CC[C@H](O)C(C)(C)[C@@H]4CC[C@@]3(C)[C@]1(C)CC2` the value was 12.6 µM; for `Cc1ccc(NCCCCCCOC(=O)[C@]23CCC(C)(C)C[C@H]2C2=CC[C@@H]4[C@@]5(C)CC[C@H](O)C(C)(C)[C@@H]5CC[C@@]4(C)[C@]2(C)CC3)cc1`, 28.1 µM. On to `CO[C@H]1O[C@H](Cn2cc(COC(=O)[C@]34CCC(C)(C)C[C@H]3C3=CC[C@@H]5[C@@]6(C)CC[C@H](O)C(C)(C)[C@@H]6CC[C@@]5(C)[C@]3(C)CC4)nn2)[C@@H](O)[C@H](O)[C@H]1O`, for which the IC50 turned out to be 1.14 µM. For `CC(=O)OCCCCCCOC(=O)[C@H](O)CC(=O)OCCCCCCOC(=O)[C@]12CCC(C)(C)C[C@H]1C1=CC[C@@H]3[C@@]4(C)CC[C@H](O)C(C)(C)[C@@H]4CC[C@@]3(C)[C@]1(C)CC2` the value was 12.3 µM; for `CC(=O)OCc1cn(CCCCCCn2cc(COC(=O)[C@]34CCC(C)(C)C[C@H]3C3=CC[C@@H]5[C@@]6(C)CC[C@H](O)C(C)(C)[C@@H]6CC[C@@]5(C)[C@]3(C)CC4)nn2)nn1`, 20.7 µM. On to `CC1(C)CC[C@]2(C(=O)OCc3ccccc3)CC[C@]3(C)C(=CC[C@@H]4[C@@]5(C)CC[C@H](OC(=O)CCl)C(C)(C)[C@@H]5CC[C@]43C)[C@@H]2C1`, for which the half-maximal inhibitory concentration (IC50) came out at 12.6 µM. On to `CC1(C)CC[C@]2(C(=O)OCc3ccccc3)CC[C@]3(C)C(=CC[C@@H]4[C@@]5(C)CC[C@H](OC(=O)CN=[N+]=[N-])C(C)(C)[C@@H]5CC[C@]43C)[C@@H]2C1`, for which the IC50 came out at 12.7 µM. The same measure for `CCN(CC)CC(=O)O[C@H]1CC[C@]2(C)[C@H]3CC=C4[C@@H]5CC(C)(C)CC[C@]5(C(=O)OCc5ccccc5)CC[C@@]4(C)[C@]3(C)CC[C@H]2C1(C)C`: 20.1 µM; for `CC1(C)CC[C@]2(C(=O)OCc3ccccc3)CC[C@]3(C)C(=CC[C@@H]4[C@@]5(C)CC[C@H](OC(=O)c6ccc([N+](=O)[O-])cc6)C(C)(C)[C@@H]5CC[C@]43C)[C@@H]2C1`: 16.1 µM. For `CC1(C)CC[C@]2(C(=O)OCc3ccccc3)CC[C@]3(C)C(=CC[C@@H]4[C@@]5(C)CC[C@H](OC(=O)c6ccc(N)cc6)C(C)(C)[C@@H]5CC[C@]43C)[C@@H]2C1` the value was 2.13 µM; for `CC1(C)CC[C@]2(C(=O)OCc3ccccc3)CC[C@]3(C)C(=CC[C@@H]4[C@@]5(C)CC[C@H](OC(=O)[n+]6ccccc6)C(C)(C)[C@@H]5CC[C@]43C)[C@@H]2C1`, 5.39 µM; for `CC1(C)CC[C@]2(C(=O)OCc3ccccc3)CC[C@]3(C)C(=CC[C@@H]4[C@@]5(C)CC[C@H](OC(=O)Cn6cc(COC(=O)Cc7ccccc7)nn6)C(C)(C)[C@@H]5CC[C@]43C)[C@@H]2C1`, 27.7 µM. For `CC1(C)CC[C@]2(C(=O)OCc3ccccc3)CC[C@]3(C)C(=CC[C@@H]4[C@@]5(C)CC6C=NOC6C(C)(C)[C@@H]5CC[C@]43C)[C@@H]2C1` (some centres not stated) the value was 19.6 µM; for `CC1(C)CC[C@]2(C(=O)O)CC[C@]3(C)C(=CC[C@@H]4[C@@]5(C)Cc6nonc6C(C)(C)[C@@H]5CC[C@]43C)[C@@H]2C1`, 11.2 µM. Turning to `C[C@H]1[C@H](C)CC[C@]2(C(=O)O)CC[C@]3(C)C(=CC[C@@H]4[C@@]5(C)Cc6nonc6C(C)(C)[C@@H]5CC[C@]43C)[C@H]12`, the IC50 is 66.3 µM. The same measure for `Cc1ccc(-n2ncc3c2C(C)(C)[C@@H]2CC[C@]4(C)[C@H](CC=C5[C@@H]6CC(C)(C)CC[C@]6(C(=O)O)CC[C@]54C)[C@@]2(C)C3)cc1`: 18.3 µM; for `CC1(C)CC[C@]2(C(=O)O)CC[C@]3(C)C(=CC[C@@H]4[C@@]5(C)Cc6cnn(-c7ccc(Cl)cc7)c6C(C)(C)[C@@H]5CC[C@]43C)[C@@H]2C1`: 242 µM; for `CC1(C)CC[C@]2(C(=O)O)CC[C@]3(C)C(=CC[C@@H]4[C@@]5(C)Cc6cnn(-c7cc(F)cc(F)c7)c6C(C)(C)[C@@H]5CC[C@]43C)[C@@H]2C1`: 46.9 µM. Consider `CC(C)c1ccc(-n2ncc3c2C(C)(C)[C@@H]2CC[C@]4(C)[C@H](CC=C5[C@@H]6CC(C)(C)CC[C@]6(C(=O)O)CC[C@]54C)[C@@]2(C)C3)cc1`, for which the 50% inhibitory concentration (IC50) turned out to be 69.6 µM. The same measure for `Cc1ccc(-n2ncc3c2C(C)(C)[C@@H]2CC[C@]4(C)[C@H](CC=C5[C@@H]6CC(C)(C)CC[C@]6(C(=O)OCc6ccccc6)CC[C@]54C)[C@@]2(C)C3)cc1`: 106 µM; for `CC1(C)CC[C@]2(C(=O)OCc3ccccc3)CC[C@]3(C)C(=CC[C@@H]4[C@@]5(C)Cc6cnn(-c7ccc(Cl)cc7)c6C(C)(C)[C@@H]5CC[C@]43C)[C@@H]2C1`: 11.2 µM. For `COc1ccc(-n2ncc3c2C(C)(C)[C@@H]2CC[C@]4(C)[C@H](CC=C5[C@@H]6CC(C)(C)CC[C@]6(C(=O)OCc6ccccc6)CC[C@]54C)[C@@]2(C)C3)cc1` the value was 13.1 µM; for `CC1(C)CC[C@]2(C(=O)OCc3ccccc3)CC[C@]3(C)C(=CC[C@@H]4[C@@]5(C)Cc6cn[nH]c6C(C)(C)[C@@H]5CC[C@]43C)[C@@H]2C1`, 8.1 µM; for `CC1(C)CC[C@]2(COC(=O)CCC(=O)O)CC[C@]3(C)C(=CC[C@@H]4[C@@]5(C)Cc6c[nH]nc6C(C)(C)[C@@H]5CC[C@]43C)[C@@H]2C1`, 24.7 µM. The same measure for `C[C@H]1[C@H](C)CC[C@]2(C(=O)O)CC[C@]3(C)C(=CC[C@@H]4[C@@]5(C)Cc6cn[nH]c6C(C)(C)[C@@H]5CC[C@]43C)[C@H]12`: 40.4 µM.

On to `C[C@H]1[C@H](C)CC[C@]2(C(=O)OCc3ccccc3)CC[C@]3(C)C(=CC[C@@H]4[C@@]5(C)Cc6cn[nH]c6C(C)(C)[C@@H]5CC[C@]43C)[C@H]12`, for which the half-maximal inhibitory concentration (IC50) was determined as 72.9 µM. With `Cn1cc2c(n1)C(C)(C)[C@@H]1CC[C@]3(C)[C@H](CC=C4[C@@H]5CC(C)(C)CC[C@]5(C(=O)OCc5ccccc5)CC[C@]43C)[C@@]1(C)C2`, the IC50 stood at 188 µM. For `CCn1cc2c(n1)C(C)(C)[C@@H]1CC[C@]3(C)[C@H](CC=C4[C@@H]5CC(C)(C)CC[C@]5(C(=O)OCc5ccccc5)CC[C@]43C)[C@@]1(C)C2` the value was 64.6 µM; for `CC1(C)CC[C@]2(C(=O)OCc3ccccc3)CC[C@]3(C)C(=CC[C@@H]4[C@@]5(C)Cc6cn(C7CC7)nc6C(C)(C)[C@@H]5CC[C@]43C)[C@@H]2C1`, 20.5 µM; for `CC1(C)CC[C@]2(C(=O)OCc3ccccc3)CC[C@]3(C)C(=CC[C@@H]4[C@@]5(C)Cc6cn(CC(=O)O)nc6C(C)(C)[C@@H]5CC[C@]43C)[C@@H]2C1`, 47.1 µM. As to `CC1(C)CC[C@]2(C(=O)OCc3ccccc3)CC[C@]3(C)C(=CC[C@@H]4[C@@]5(C)Cc6cn(Cc7ccccc7)nc6C(C)(C)[C@@H]5CC[C@]43C)[C@@H]2C1`, the half-maximal inhibitory concentration (IC50) came to 126 µM. For `CCOC(=O)Cn1cc2c(n1)C(C)(C)[C@@H]1CC[C@]3(C)[C@H](CC=C4[C@@H]5CC(C)(C)CC[C@]5(C(=O)OCc5ccccc5)CC[C@]43C)[C@@]1(C)C2` the value was 111 µM; for `CC1(C)CC[C@]2(C(=O)OCc3ccccc3)CC[C@]3(C)C(=CC[C@@H]4[C@@]5(C)Cc6cn(Cc7ccc(Cl)cc7Cl)nc6C(C)(C)[C@@H]5CC[C@]43C)[C@@H]2C1`, 179 µM. For `CC(=O)n1cc2c(n1)C(C)(C)[C@@H]1CC[C@]3(C)[C@H](CC=C4[C@@H]5CC(C)(C)CC[C@]5(C(=O)O)CC[C@]43C)[C@@]1(C)C2` the value was 53.8 µM; for `CC1(C)CC[C@]2(C(=O)O)CC[C@]3(C)C(=CC[C@@H]4[C@@]5(C)Cc6cn(S(C)(=O)=O)nc6C(C)(C)[C@@H]5CC[C@]43C)[C@@H]2C1`, 49.3 µM; for `CCC(=O)n1cc2c(n1)C(C)(C)[C@@H]1CC[C@]3(C)[C@H](CC=C4[C@@H]5CC(C)(C)CC[C@]5(C(=O)O)CC[C@]43C)[C@@]1(C)C2`, 37.2 µM.

For `C[C@H]1[C@H](C)CC[C@]2(C(=O)OCc3ccccc3)CC[C@]3(C)C(=CC[C@@H]4[C@@]5(C)C=C(O)C(=O)C(C)(C)[C@@H]5CC[C@]43C)[C@H]12`, the half-inhibitory concentration (IC50) is 7.31 µM. In the case of `CC1(C)CC[C@]2(C(=O)O)CC[C@]3(C)C(=CC[C@@H]4[C@@]5(C)Cc6cnn(-c7ccccc7)c6C(C)(C)[C@@H]5CC[C@]43C)[C@@H]2C1`, the IC50 is 35.1 µM. The same measure for `CC1(C)CC[C@]2(C(=O)O)CC[C@]3(C)C(=CC[C@@H]4[C@@]5(C)Cc6cn[nH]c6C(C)(C)[C@@H]5CC[C@]43C)[C@@H]2C1`: 7.8 µM.
